The values below come from US20250064789A1, “KETOAMIDE DERIVATIVES AND PHARMACEUTICAL USES THEREOF” (priority 2022, published 2025).

The target of one assay is recombinant SARS-CoV-2 M^pro (Severe acute respiratory syndrome coronavirus 2 (2019-nCoV) (SARS-CoV-2), UniProt P0DTD1). Briefly: Inhibition of SARS-CoV-2 M^pro enzyme activity (fluorescent substrate assay). The class given is biochemical. Conditions: inhibition of SARS-CoV-2 M^pro enzyme activity; values given in μM; read-out: IC50.
What is called IC50 is the concentration that inhibits the measured activity by half. In the case of `C[C@@H](NC(=O)Cc1cc(OC(F)(F)F)ccc1F)C(=O)N[C@H](Cc1ccccc1)C(=O)C(=O)NCc1nccs1` [Compound 382], the IC50 was 15 ± 1.3 µM.

As for `O=C(NCc1nccs1)C(=O)[C@@H](Cc1ccccc1F)NC(=O)c1ccccc1` [Compound 464], the IC50 is 3.5 ± 0.23 µM.

`Cc1nc(CNC(=O)C(=O)[C@@H](Cc2ccccc2)NC(=O)[C@@H](C)NC(=O)C2CCC(F)(F)CC2)cs1` [Compound 351]: the IC50 is 1.16 ± 0.32 µM.

For the molecule `C[C@@H](NC(=O)C1CCC(F)(F)CC1)C(=O)N[C@H](Cc1ccccc1)C(=O)C(=O)NCc1nccn1C` [Compound 347], the IC50 was more than 2.5 µM.

For the molecule `O=C(CNC(=O)c1ccccc1)N[C@H](Cc1ccccc1)C(=O)C(=O)NCc1nccs1` [Compound 477], the IC50 worked out at 1.86 ± 0.04 µM.

Consider `O=C(NCc1cccs1)C(=O)[C@@H](Cc1ccccc1)NC(=O)c1ccccc1` [Compound 455], for which the IC50 was determined as 77.3 ± 2.31 µM.

Consider `Cc1csc(CNC(=O)C(=O)[C@@H](Cc2ccccc2)NC(=O)c2ccccc2)n1` [Compound 462], for which the IC50 is 40.7 ± 1.5 µM.

The same assay, now with this note: inhibition of SARS-CoV-2 M^pro enzyme activity; values in nM; read-out: IC50.
Turning to `COc1ccc(CO[C@H](C)C(=O)N[C@H](Cc2ccccc2)C(=O)C(=O)NCc2ccccn2)cc1F` [Compound 16], the IC50 was 0.0189 ± 0.0017 µM.

In the case of `CC(C)(NC(=O)[C@H]1CC[C@@H](F)CC1)C(=O)N[C@H](Cc1ccccc1)C(=O)C(=O)NCc1ccccn1` [Compound 175], the IC50 is 0.0473 ± 0.0028 µM.

For the molecule `CC(C)(C(=O)N[C@H](Cc1ccccc1)C(=O)C(=O)NCc1ccccn1)n1cc(-c2ccc(F)cc2)cn1` [Compound 330], the IC50 turned out to be 0.195 ± 0.0145 µM.

Consider `COc1ccc(OC(C)C(=O)N[C@H](C)C(=O)N[C@H](Cc2ccccc2)C(=O)C(=O)NCc2ccccn2)cc1` (stereo partly drawn) [Compound 87], for which the IC50 is 0.0421 ± 0.001 µM.

On to `C=C[C@@H]1C[C@]1(NC(=O)C1CCC(F)(F)CC1)C(=O)N[C@H](Cc1ccccc1)C(=O)C(=O)NCc1ccccn1` [Compound 229], for which the IC50 is 0.0338 ± 0.001 µM.

With `O=C(CCC1CCC(F)(F)CC1)NC1(C(=O)N[C@H](Cc2ccccc2)C(=O)C(=O)NCc2ccccn2)CC1` [Compound 157], the IC50 turned out to be 0.0125 ± 0.0005 µM.

As to `CC1=NN=C(C)C1C(=O)NC1(C(=O)N[C@H](Cc2ccccc2)C(=O)C(=O)NCc2ccccn2)CCC1` [Compound 212], the IC50 was determined as 0.346 ± 0.0099 µM.

As for `COC[C@@H](NC(=O)NC1CC(F)(F)C1)C(=O)N[C@H](Cc1ccccc1)C(=O)C(=O)NCc1nccs1` [Compound 549], the half-inhibitory concentration (IC50) came to 0.0212 ± 0.0006 µM.

Turning to `O=C(Cn1cc(-c2cc(F)ccc2F)cn1)N[C@H](Cc1ccccc1)C(=O)C(=O)NCc1nccs1` [Compound 507], the IC50 amounted to 0.0126 ± 0.0004 µM.

As for `C[C@@H](NC(=O)c1cc(F)cc(C#N)c1)C(=O)N[C@H](Cc1ccccc1)C(=O)C(=O)NCc1ccccn1` [Compound 105], the IC50 is 0.0253 ± 0.0017 µM.

Regarding `C[C@@H](NC(=O)COc1ccc(OC(F)(F)F)cc1)C(=O)N[C@H](Cc1ccccc1)C(=O)C(=O)NCc1ccccn1` [Compound 69], the IC50 came to 0.0177 ± 0.0015 µM.

Take `C[C@@H](NC(=O)COc1ccccc1)C(=O)N[C@H](Cc1ccccc1)C(=O)C(=O)NCc1ccccn1` [Compound 61]: the IC50 was found to be 0.0118 ± 0.0001 µM.

Regarding `C[C@@H](NC(=O)COC1CCCCC1)C(=O)N[C@H](Cc1ccccc1)C(=O)C(=O)NCc1ccccn1` [Compound 114], the IC50 was found to be 0.0349 ± 0.001 µM.

Regarding `C[C@@H](NC(=O)C1CCCCCC1)C(=O)N[C@H](Cc1ccccc1)C(=O)C(=O)NCc1nccs1` [Compound 370], the IC50 stood at 0.0148 ± 0.0007 µM.

As for `O=C(NCc1ccccn1)C(=O)[C@@H](Cc1ccccc1)NC(=O)[C@H]1Cc2ccccc2CN1C(=O)[C@@H](NC(=O)c1cnccn1)C1CCCCC1` [Compound 271], the IC50 is 0.0115 ± 0.0001 µM.

Regarding `O=C(Cc1noc(C2CCC(F)(F)CC2)n1)N[C@H](Cc1ccccc1)C(=O)C(=O)NCc1nccs1` [Compound 533], the IC50 amounted to 0.069 ± 0.0069 µM.

Turning to `CC(C)(OCc1ccc(Cl)cc1)C(=O)N[C@H](Cc1ccccc1)C(=O)C(=O)NCc1ccc(Cl)cn1` [Compound 43], the IC50 was determined as 0.0202 ± 0.0025 µM.

In the case of `CC(C)(OCc1ccc(OC(F)(F)F)cc1)C(=O)N[C@H](Cc1ccccc1)C(=O)C(=O)NCc1ccccn1` [Compound 17], the IC50 was determined as 0.0198 ± 0.0002 µM.

`O=C(Cn1cc(-c2cc(F)c(F)cc2F)cn1)N[C@H](Cc1ccccc1)C(=O)C(=O)NCc1nccs1` [Compound 506]: the IC50 was 0.105 ± 0.0029 µM.

Turning to `O=C(CNC(=O)c1ccc(Cl)cc1)N[C@H](Cc1ccccc1)C(=O)C(=O)NCc1ccccn1` [Compound 439], the IC50 was 0.0462 ± 0.0003 µM.

In the case of `O=C(NCc1nccs1)C(=O)[C@@H](Cc1ccccc1)NC(=O)[C@@H](CO)NC(=O)C1CCCC(F)(F)C1` (stereo partly drawn) [Compound 567], the 50% inhibitory concentration (IC50) worked out at 0.0636 ± 0.0029 µM.

Turning to `C[C@@H](NS(=O)(=O)c1cccnc1)C(=O)N[C@H](Cc1ccccc1)C(=O)C(=O)NCc1ccccn1` [Compound 332], the IC50 was found to be 0.8883 ± 0.0012 µM.

Turning to `C[C@@H](NC(=O)C1(F)CCCCC1)C(=O)N[C@H](Cc1ccccc1)C(=O)C(=O)NCc1ccccn1` [Compound 128], the IC50 was found to be 0.0094 ± 0.0013 µM.

Regarding `C[C@@H](NC(=O)COc1cccc(C#N)c1)C(=O)N[C@H](Cc1ccccc1)C(=O)C(=O)NCc1ccccn1` [Compound 115], the IC50 came to 0.0378 ± 0.003 µM.

`C[C@@H](NC(=O)c1cc2ccccc2[nH]1)C(=O)N[C@H](Cc1ccccc1)C(=O)C(=O)NCc1nccs1` [Compound 380]: the IC50 came to 0.0558 ± 0.0072 µM.

Turning to `O=C(CNC(=O)c1cc2ccccc2o1)N[C@H](Cc1ccccc1)C(=O)C(=O)NCc1ccccn1` [Compound 444], the IC50 was determined as 0.2143 ± 0.0012 µM.

In the case of `CC(C)[C@@H](NC(=O)C1CCC(F)(F)CC1)C(=O)N[C@H](Cc1ccccc1)C(=O)C(=O)NCc1ccccn1` [Compound 242], the IC50 stood at 0.0268 ± 0.0018 µM.

Regarding `COC[C@@H](NC(=O)N1CCCC(F)(F)C1)C(=O)N[C@H](Cc1ccccc1)C(=O)C(=O)NCc1nccs1` [Compound 548], the IC50 was determined as 0.4104 ± 0.001 µM.

As to `O=C(NCc1ccccn1)C(=O)[C@@H](Cc1ccccc1)NC(=O)[C@H]1CCCCN1C(=O)C1CCC(F)(F)CC1` [Compound 282], the IC50 is 0.0134 ± 0.0004 µM.

Take `O=C(NCc1cscn1)C(=O)[C@@H](Cc1ccccc1)NC(=O)[C@H]1COCCN1C(=O)C1CCC(F)(F)C1` (stereo partly drawn) [Compound 437]: the IC50 is 0.0611 ± 0.0012 µM.

For `O=C(NCc1ccccn1)C(=O)[C@@H](Cc1ccccc1)NC(=O)C1(NC(=O)[C@H]2CC[C@H](c3ccc(Cl)cc3)CC2)CCC1` [Compound 201], the IC50 is 0.6534 ± 0.0041 µM.

For `C[C@@H](NC(=O)C1CCC(F)(F)CC1)C(=O)N[C@H](Cc1ccccc1)C(=O)C(=O)NCc1cocn1` [Compound 350], the IC50 came to 0.042 ± 0.0037 µM.

As to `COC[C@@H](NC(=O)CC1CCC(F)(F)CC1)C(=O)N[C@H](Cc1ccccc1)C(=O)C(=O)NCc1nccs1` [Compound 394], the IC50 was 0.0124 ± 0.0014 µM.

Regarding `O=C(NCc1ccccn1)C(=O)[C@@H](Cc1ccccc1)NC(=O)C1(NC(=O)C2CCC(O)(C(F)(F)F)CC2)CCC1` (stereo partly drawn) [Compound 205], the IC50 turned out to be 0.0239 ± 0.0009 µM.

Take `O=C(CC1CC1(F)F)NCC(=O)N[C@H](Cc1ccccc1)C(=O)C(=O)NCc1nccs1` (stereo partly drawn) [Compound 386]: the IC50 was determined as 0.166 ± 0.0021 µM.

Consider `O=C(NCc1nccs1)C(=O)[C@@H](Cc1ccccc1)NC(=O)[C@H](NC(=O)C1CCC(F)(F)CC1)C1CC1` [Compound 543], for which the IC50 is 0.107 ± 0.0013 µM.

As for `N#Cc1ccc(OCC(=O)NC2(C(=O)N[C@H](Cc3ccccc3)C(=O)C(=O)NCc3ccccn3)CCC2)cc1` [Compound 208], the IC50 worked out at 0.0371 ± 0.0017 µM.

Regarding `O=C(NCc1nccs1)C(=O)[C@@H](Cc1ccccc1)NC(=O)C1CC1C(=O)NC1CC(F)(F)C1` (stereo partly drawn) [Compound 555], the IC50 came out at 0.4773 ± 0.0041 µM.
